These results are taken from ChEMBL document CHEMBL1142844, “A chemical strategy to promote helical peptide-protein interactions involved in apoptosis” (Bioorg Med Chem Lett, 2005).

In this assay the target is Apoptosis regulator Bcl-2 (Homo sapiens, UniProt P10415). The experiment in a line: Inhibition of BCL2 by fluorescence polarization based competitive binding assay. (Fluorescence polarisation rises when a labelled molecule tumbles more slowly, as on binding a larger partner.)
Chain of Apoptosis regulator Bcl-2 (P10415 whole entry): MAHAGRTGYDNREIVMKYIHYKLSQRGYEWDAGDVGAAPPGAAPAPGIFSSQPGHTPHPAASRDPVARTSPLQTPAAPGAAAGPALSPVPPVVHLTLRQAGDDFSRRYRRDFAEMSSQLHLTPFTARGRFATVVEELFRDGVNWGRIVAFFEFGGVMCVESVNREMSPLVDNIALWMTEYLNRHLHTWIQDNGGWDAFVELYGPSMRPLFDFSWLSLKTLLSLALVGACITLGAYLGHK

As a reminder, the IC50 is the concentration at which inhibition is half-maximal. Regarding `CC[C@H](C)[C@H](NC(=O)[C@H](CC(N)=O)NC(=O)[C@H](CCCN=C(N)N)NC(=O)[C@@H](NC(=O)[C@@H](NC(=O)[C@H](CC(=O)O)NC(=O)[C@H](CCC(=O)O)NC(=O)[C@@H](N)CCC(N)=O)[C@@H](C)CC)[C@@H](C)CC)C(=O)N[C@@H](C)C(=O)N[C@@H](CCCN=C(N)N)C(=O)N[C@@H](Cc1c[nH]cn1)C(=O)N[C@@H](CC(C)C)C(=O)N[C@@H](C)C(=O)N[C@@H](CCC(N)=O)C(=O)N[C@H](C(=O)NCC(=O)N[C@@H](CC(=O)O)C(=O)N[C@@H](CO)C(=O)N[C@@H](CCSC)C(=O)N[C@@H](CC(=O)O)C(=O)N[C@@H](CCCN=C(N)N)C(=O)N[C@@H](CO)C(=O)N[C@H](C(=O)N1CCC[C@H]1C(=O)N1CCC[C@H]1C(=O)NCC(=O)O)[C@@H](C)CC)C(C)C`, the IC50 (read-out: IC50) is 14100 nM. On to H-KKLSECLKRIGDELDS-OH, for which the IC50 (read-out: IC50) came out at 29100 nM. Regarding H-NLAAAQRYGRELRRMSDEFEGSFKGL-OH, where the note is “read-out: IC50”, the IC50 came out at 410 nM. The same measure, in the same setting: in the case of H-NLWAAGQVGRQLAIIGDDINRSFKGL-OH it was 650 nM. On the same count and under the same terms, in the case of H-NLWAAKKLSECLKRIGDELDSSFKGL-OH it was 1330 nM; in that of H-NLWAAQRYGRELRRMSDEFEG-OH, 5600 nM. For H-NLWAAQRYGRELRRMSDEFEGAFKGL-OH, the IC50 (read-out: IC50) is 800 nM. Still for that read-out and setting: in the case of H-NLWAAQRYGRELRRMSDEFEGSAKGL-OH it was 1360 nM. Same read-out and setting: in the case of H-NLWAAQRYGRELRRMSDEFEGSFKGL-OH it was 300 nM; in that of H-NLWAARNIARHLAQVGDSMDRSFKGL-OH, 1560 nM; in that of H-NRWAAQRYGRELRRMSDEFEGSFKGL-OH, 490 nM. Still for that read-out and setting: in the case of H-PSSTMGQVGRQLAIIGDDINRRYDSE-OH it was 3030 nM; in that of H-QDASTKKLSECLKRIGDELDSNMELQ-OH, 2880 nM. H-QRYGRELRRMSDEFEG-OH: the IC50 result is recorded as “Not Active”. H-QRYGRELRRMSDEFEGSFKGL-OH: the IC50 (read-out: IC50) was determined as 17500 nM. H-RNIARHLAQVGDSMDR-OH: the IC50 (read-out: IC50) turned out to be 22300 nM.
